Results published in US20170137625A1, “ANTHRAQUINONE COMPOUND USED FOR COLOR FILTER OF LCD” (Dow Global Technologies LLC, priority 2014, published 2017).

Legend:
[1] = Thermal stability of films (chromaticity): ΔE before and after hard baking; assay type: physicochemical; settings: for ΔEab after baking at 230° C. for 1 h: dye in alkaline soluble acrylic resin film on glass, hard baked at 230° C. under air for 1 h, CIE Lab, D65/10
Experimental: 1.15 g of alkaline soluble acrylic resin solution (MIPHOTO RPR4022, supplied from Miwan Commercial Co., Ltd., 40 wt % of solid content in methyl 3-methoxypropionate) was mixed with 1.73 g of PGMEA (60 wt %). 0.189 g of Dye 1 was mixed in the alkaline soluble resin/PGMEA solution and stirred for 2 hours at room temperature using a shaker. The solution was filtered through a 0.45 μm PTFE filter to remove large particles. Then the filtered solution was spin coated onto a clean glass substrate with 400 rpm spin speed for 18 seconds. The obtained film was first dried at 90° C. under air atmosphere for 30 minutes, and then hard baked at 230° C. under air atmosphere for 1 hour. The CIE values (xyY values and lab values) and the transmittance were measured before and after the hard bake.
(4) Thermal Stability of Films (Chromaticity):
The wet film after spin coating is dried in oven at 90° C. for 30 minutes and then soft baked at 150° C. for 15 minutes. The chromaticity coordinates (L, a, b) are recorded with UltraScan Pro (Hunterlab) colorimeter. D65/10 light source is used and results are based on CIE Lab coordinates. After that the film is hard baked at target temperature (230° C.) for 1 hour and the new chromaticity coordinates (L′, a′, b′) are recorded with the method above. The thermal stability of a film is indicated by the difference of chromaticity coordinate before and after hard baking represented by the following formula;
ΔE=√{square root over ((L−L′)^2+(a−a′)^2+(b−b′)^2)}

[2] = Solubility in PGMEA; assay type: physicochemical; settings: for Solubility in PGMEA: solvent PGMEA (propylene glycol monomethyl ether acetate)
[3] = comparison in words, referring to Table 1

| ΔEab after baking at 230° C. for 1 h [1] | Solubility in PGMEA [2] | thermal stability compared with the Comparative Examples [1, 3] | solubility in PEGMEA compared with the Comparative Examples [2, 3] | SMILES |
| --- | --- | --- | --- | --- |
| 6.8 | 3.0 wt % |  |  | Cc1cc(C)c(Nc2ccc(Nc3c(C)cc(O)cc3C)c3c2C(=O)c2ccccc2C3=O)c(C)c1 [(1-((4-hydroxy-2,6-dimethylphenyl)amino)-4-(mesitylamino)-anthraquinone] |
| 2.1 | 6.2 wt % | significant improvement | significant improvement | C=CCN(CC=C)C(=O)COc1cc(C)c(Nc2ccc(Nc3c(C)cc(C)cc3C)c3c2C(=O)c2ccccc2C3=O)c(C)c1 [Dye 1, N,N-diallyl-acetamide modified anthraquinone] |
| 33 (color almost | 1.9 wt % |  |  | CC(C)Nc1ccc(NC(C)C)c2c1C(=O)c1ccccc1C2=O [Solvent Blue 36] |
| 7.9 | 0.6 wt % |  |  | Cc1cc(C)c(Nc2ccc(Nc3c(C)cc(C)cc3C)c3c2C(=O)c2ccccc2C3=O)c(C)c1 [Solvent Blue 104, 1,4-bis(mesitylamino)anthraquinone] |
